From paper PMC10812557, “Progressive Design of a Ranatuerin-2 Peptide from Amolops wuyiensis: Enhancement of Bioactivity and In Vivo Efficacy” (Antibiotics, 2023)
pIC50: −log10 of the molar value. “And” between values parts separate entries of the source, which are not always exact repeats. Identical values can stand only once. Like-named read-outs stand apart in the source and are kept apart here. Peptide text beside a SMILES is read from it.

Assays:
[1] = tested on: E. coli (ATCC 8739); test: Time–killing assay; assay type: cell-based, Escherichia coli; conditions: peptide control
Protocol: (§1) S. aureus (NCTC 10788), E. coli (ATCC 8739), MRSA (NCTC 12493), and P. aeruginosa (ATCC 9027) were used in this assay. Treatments of 2 × MIC, 1 × MIC, and 0.5 × MIC of [Lys^4,19, Leu^20]R2AW(1-22)-NH2 were prepared and mixed with 198 μL of diluted bacteria (5 × 10^5 CFU/mL). At each time point (0, 10, 20, 30, 60, 90, 120, and 180 min), 10 μL of peptide and bacteria mixture was dropped onto the MHA plate. After overnight incubation, the number of bacterial colonies was calculated. The CFU/mL could be calculated using the formula CFU/mL = (Number of colonies × dilution factor)/volume of culture.

[2] = tested on: K. pneumoniae (ATCC 43816); assay type: cell-based
Text: (§2) The MIC and MBC assays were used to assess the inhibitory activities of all 5 analogues of R2AW on the growth of planktonic microorganisms. The MIC is the lowest concentration that prevents the viable growth of bacteria. The MBC is the lowest concentration that results in bacterial death. Six microorganisms were used to detect the antimicrobial activity of peptides, including Gram-positive bacteria S. aureus (NCTC 10788), MRSA (NCTC 12493), Enterococcus faecalis (E. faecalis) (NCTC 12697), Gram-negative bacteria E. coli […], Klebsiella pneumoniae (K. pneumoniae) (ATCC 43816), and Pseudomonas aeruginosa (P. aeruginosa) (ATCC 9027). According to the assay described previously, the microorganisms were inoculated at 37 °C overnight and diluted to 5 × 10^5 CFU/mL after reaching the logarithmic growth period. The peptide stock solution at the concentration of 512 × 10^2 μM was prepared and diluted to 100 μM by a 2-fold dilution. One μL of each concentration of peptide solution was incubated with 99 μL of bacterial subculture in the 96-well plate for 18 h at 37 °C. The absorbance was determined at a wavelength of 550 nm using a Synergy HT plate reader (Bio Tek, Washington, DC, USA). […] As for those wells that were clearly visible, 20 μL of the solution was dropped onto the Mueller Hinton agar (MHA) dish and then incubated at 37 °C overnight. The lowest concentration with no colony growth was determined as the MBC.

[3] = tested on: E. coli (ATCC 8739); assay type: cell-based
Text: as §2

[4] = tested on: P. aeruginosa (ATCC 9027); assay type: cell-based
Text: as §2

[5] = tested on: P. aeruginosa (ATCC 9027); test: Time–killing assay; assay type: cell-based, Pseudomonas aeruginosa; conditions: peptide control
Protocol: as §1

[6] = tested on: S. aureus (NCTC 10788); test: microbe, parasite or virus in culture; assay type: cell-based
Text: as §2

[7] = tested on: E. faecium (NTCC 12697); test: microbe, parasite or virus in culture; assay type: cell-based
Text: as §2

[8] = tested on: MRSA (NCTC 12493); test: microbe, parasite or virus in culture; assay type: cell-based
Text: as §2

[9] = tested on: MRSA (NCTC 12493); test: Time–killing assay; assay type: cell-based, methicillin-resistant Staphylococcus aureus; conditions: control antibiotic, 3 h incubation
Protocol: as §1

[10] = tested on: S. aureus (NCTC 10788); test: Time–killing assay; assay type: cell-based, Staphylococcus aureus; conditions: control antibiotic, 3 h incubation
Protocol: as §1

[11] = tested on: five human cancer cell lines; assay type: cell-based; conditions: 24 h
Protocol: (§3) Five human cancer cell lines of non-small-cell lung cancer H838, human prostate carcinoma PC-3, human neuronal glioblastoma U251MG, human breast cancer cell MCF-7, and colorectal carcinoma HCT116 were used to detect the antiproliferative abilities of R2AW and its five analogues. According to the procedures in a previous article, cells (8000 cells/well) were seeded into the 96-well tissue culture plates and incubated at 37 °C with 5% CO2 overnight. The solutions of R2AW and its analogues at concentrations of 10^−4 M to 10^−9 M were prepared in the serum-free medium. Next, cells in each well were treated with 100 μL of each peptide solution for 24 h. Subsequently, 10 μL of 5 mg/mL MTT (3-(4, 5-Dimethylthiazol-2-yl-)-2, 5-Diphehyltetrazolium Bromide) was added to each well followed by 37 °C incubation for 2 h. After that, the liquid in each well was removed and 100 μL of DMSO was added to dissolve the purple formazan. The plate was placed on a shaking incubator for 10 min, and the absorbance was detected at 550 nm using a Synergy HT plate reader (Biotech, Minneapolis, MN, USA).

[12] = tested on: Galleria mellonella larvae; test: Toxicity in waxworms with no MRSA treatment; assay type: in vivo; conditions: 10 mg/kg
[13] = tested on: HCT116; assay type: cell-based, human; conditions: 24 h
Protocol: as §3

[14] = tested on: PC-3; assay type: cell-based, human; conditions: 24 h
Protocol: as §3

[15] = tested on: H838; assay type: cell-based, human; conditions: 24 h
Protocol: as §3

[16] = tested on: MCF-7; assay type: cell-based, human; conditions: 24 h
Protocol: as §3

[17] = tested on: U251MG; assay type: cell-based, human; conditions: 24 h
Protocol: as §3

[18] = tested on: MRSA (NCTC 12493); assay type: cell-based, methicillin-resistant Staphylococcus aureus; conditions: NCTC 12493
Protocol: (§4) As a previous study described in detail, the ability of R2AW and its analogues to inhibit and eradicate the formation of biofilm was investigated. The MBIC is the lowest concentration which inhibits the formation of biofilm. The MBEC is the minimum concentration that eradicates biofilm. Six bacterial strains were used, as described above. Briefly, the bacteria were cultured and then diluted to 5 × 10^5 CFU/mL. In MBIC assays, 1 μL of each concentration of R2AW and its analogues (ranging from 512 × 10^2 μM to 100 μM) was mixed with 99 μL of diluted bacterial suspension in a 96-well plate for 16-20 h at 37 °C. As for MBEC assays, 100 μL of cultured bacteria were seeded in a 96-well plate and incubated on the shaking incubator at 37 °C overnight for biofilm formation. Subsequently, each well was rinsed twice with 100 μL sterile PBS to remove planktonic cells, and then replaced with 100 μL of each concentration (ranging from 512 μM to 1 μM) of peptides. After 24 h incubation, the biofilm was washed twice with 100 μL of PBS and fixed with methanol. Next, the same volume of 0.1% crystal violet solution (Sigma-Aldrich, Gillingham, UK) was added to each well to stain the biofilm. After that, 100 μL of 30% of acetic acid (Sigma-Aldrich, Gillingham, UK) was transferred to each well for dissolution. The solutions were transferred into a new 96-well plate and the absorbances of wells was monitored using a Synergy HT plate reader set to 595 nm.

[19] = tested on: P. aeruginosa (ATCC 9027); assay type: cell-based, Pseudomonas aeruginosa
Protocol: as §4

[20] = tested on: E. faecium (NTCC 12697); assay type: cell-based
Protocol: as §4

[21] = tested on: E. coli (ATCC 8739); assay type: cell-based, Escherichia coli
Protocol: as §4

[22] = tested on: S. aureus (NCTC 10788); assay type: cell-based, Staphylococcus aureus
Protocol: as §4

[23] = tested on: K. pneumoniae (ATCC 43816); assay type: cell-based, Klebsiella pneumoniae
Protocol: as §4

[24] = Staphylococcus aureus, NCTC10788

Colistin [reference compound] was tested, and the “killing effect in time–killing curve” value [1] was “rapid bacterial killing effect”, the MBC ([2]; K. pneumoniae (ATCC 43816)) was 18.5 mg/L and 16 µM and the MIC ([2]; K. pneumoniae (ATCC 43816)) was 18.5 mg/L and 16 µM. The MBC ([3]; E. coli (ATCC 8739)) was 0.3 mg/L and 0.25 µM, the MIC ([3]; E. coli (ATCC 8739)) was 0.1 mg/L and 0.125 µM and the MBC ([4]; P. aeruginosa (ATCC 9027)) was 2.3 mg/L and 2 µM. For the same compound, the MIC ([4]; P. aeruginosa (ATCC 9027)) was 1.2 mg/L and 1 µM and the “killing effect in time–killing curve” value [5] was “rapid bacterial killing effect”.
With CN[C@H](CC(C)C)C(=O)N[C@H]1C(=O)N[C@@H](CC(N)=O)C(=O)N[C@H]2C(=O)N[C@H]3C(=O)N[C@H](C(=O)N[C@H](C(=O)O)c4cc(O)cc(O)c4-c4cc3ccc4O)[C@H](O)c3ccc(c(Cl)c3)Oc3cc2cc(c3O[C@@H]2O[C@H](CO)[C@@H](O)[C@H](O)[C@H]2O[C@H]2C[C@](C)(N)[C@H](O)[C@H](C)O2)Oc2ccc(cc2Cl)[C@H]1O [Vancomycin, reference compound] the MBC [6, 24] was 0.7 µg/mL and 0.5 µM, the MIC [6, 24] was 0.7 µg/mL and 0.5 µM and the MBC ([7]; Enterococcus faecium) was > 92.7 µg/mL and > 64 µM. The MIC ([7]; Enterococcus faecium) was 0.7 µg/mL and 0.5 µM, the MBC ([8]; Staphylococcus aureus) was 0.7 µg/mL and 0.5 µM and the MIC ([8]; Staphylococcus aureus) was 0.7 µg/mL and 0.5 µM. For the same compound, the “killing effect in time–killing curve” value [9] was “could only inhibit the growth of bacteria” and the “killing effect in time–killing curve” value [10] was “could only inhibit the growth of bacteria”.
For CSCC[C@H](NC(=O)[C@H](Cc1ccccc1)NC(=O)CN)C(=O)N[C@@H](CCCCN)C(=O)N[C@H](C(=O)N[C@@H](C)C(=O)N[C@@H](CCCCN)C(=O)N[C@@H](CC(N)=O)C(=O)N[C@H](C(=O)N[C@@H](C)C(=O)N[C@@H](CCCCN)C(=O)N[C@@H](CC(N)=O)C(=O)N[C@H](C(=O)N[C@@H](C)C(=O)N[C@@H](C)C(=O)N[C@H](C(=O)N[C@@H](CC(C)C)C(=O)N[C@@H](CC(C)C)C(=O)N[C@@H](CCCCN)C(=O)N[C@@H](CC(C)C)C(=O)N[C@@H](CC(C)C)C(=O)N[C@@H](CCCCN)C(N)=O)[C@@H](C)O)C(C)C)C(C)C)[C@@H](C)O [[Lys^4,19, Leu^20]R2AW(1-22)-NH2] (H-GFMKTAKNVAKNVAATLLKLLK-NH2), the pIC50 [11] was 4.92 to 5.44, the “death of larvae with no MRSA treatment” value [12] was “no death” and the MBC ([6]; NCTC 10788, 18 h) was 4.7 mg/L. It also gave an MIC ([6]; NCTC 10788, 18 h) of 4.7 mg/L, an MBC ([7]; NTCC 12697, 18 h) of 18.9 mg/L and an MIC ([7]; NTCC 12697, 18 h) of 9.4 mg/L. The MBC ([8]; MRSA (NCTC 12493)) was 4.7 mg/L, the MIC ([8]; MRSA (NCTC 12493)) was 4.7 mg/L and the pIC50 [13] was 5.03. For the same compound, the pIC50 [14] was 5.44, the pIC50 [15] was 5.11 and the pIC50 [16] was 4.98. The pIC50 [17] was 4.91, the MBEC [18] was over 512 µM and the MBIC [18] was 4 µM. For the same compound, the MBEC [19] was 512 µM, the MBIC [19] was 16 µM and the MBEC [20] was over 512 µM. It also gave an MBIC [20] of 8 µM, an MBEC [21] of 256 µM and an MBIC [21] of 4 µM. For the same compound, the MBEC [22] was 256 µM, the MBIC [22] was 4 µM and the MBEC [23] was 256 µM. It also gave an MBIC [23] of 8 µM, an MBC ([2]; ATCC 43816, 18 h) of 18.9 mg/L and an MIC ([2]; ATCC 43816, 18 h) of 9.4 mg/L. The MBC ([3]; ATCC 8739, 18 h) was 9.4 mg/L, the MIC ([3]; ATCC 8739, 18 h) was 4.7 mg/L and the MBC ([4]; ATCC 9027, 18 h) was 37.7 mg/L. It also gave an MIC ([4]; ATCC 9027, 18 h) of 18.9 mg/L.
